Test results as given in paper PMC8924752, “Functional characterization of the human Cdk10/Cyclin Q complex” (Open Biology, 2022).

Key:
Cdk10/CycQ [1] = target: T1, Cdk10/CycQ (Homo sapiens, UniProt Q15131); assay: Radiometric kinase assay, inhibition of Cdk10/CycQ (c-MYC substrate); format: biochemical; settings: 200 nM kinase, 1 mM ATP, 5 mM Mg2+, 50 µM c-MYC (17-167) as substrate
T1 construct: We expressed the human full-length Cdk10/CycQ complex in Sf9 insect cells; MBP (followed by TEV site) (N, cleaved yes); made in house; host or cells: Sf9 insect cells (baculovirus); c-MYC substrate from E. coli BL21 pLysS
T1 sequence (Q15131 whole entry): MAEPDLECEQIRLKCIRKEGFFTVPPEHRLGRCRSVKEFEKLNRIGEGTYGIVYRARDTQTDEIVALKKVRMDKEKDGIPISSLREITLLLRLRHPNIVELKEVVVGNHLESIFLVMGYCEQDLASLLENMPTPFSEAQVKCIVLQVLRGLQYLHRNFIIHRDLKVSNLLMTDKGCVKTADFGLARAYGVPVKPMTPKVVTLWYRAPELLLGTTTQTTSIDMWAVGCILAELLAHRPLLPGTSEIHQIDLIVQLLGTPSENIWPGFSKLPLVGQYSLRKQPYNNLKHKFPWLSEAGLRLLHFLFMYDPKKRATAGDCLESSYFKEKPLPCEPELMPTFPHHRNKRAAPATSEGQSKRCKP
T1 sequence (Q8N1B3 whole entry partner): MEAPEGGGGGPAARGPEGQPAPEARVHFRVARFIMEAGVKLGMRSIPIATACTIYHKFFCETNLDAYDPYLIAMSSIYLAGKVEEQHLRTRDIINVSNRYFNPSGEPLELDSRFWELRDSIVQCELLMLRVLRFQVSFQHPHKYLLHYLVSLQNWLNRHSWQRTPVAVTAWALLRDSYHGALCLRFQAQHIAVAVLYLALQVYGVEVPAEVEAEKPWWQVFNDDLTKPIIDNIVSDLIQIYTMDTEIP

Cdk9 = target: T2, Cdk9 (Homo sapiens, UniProt P50750); assay: Radiometric kinase assay, inhibition of Cdk9 (c-MYC substrate); format: biochemical; settings: 200 nM kinase, 1 mM ATP, 5 mM Mg2+, 50 µM c-MYC (17-167) as substrate
T2 construct: His; made in house; host or cells: Cdk9 in Sf9 insect cells; CycT1 (1-272) in E. coli
T2 sequence (P50750 whole entry, species assumed): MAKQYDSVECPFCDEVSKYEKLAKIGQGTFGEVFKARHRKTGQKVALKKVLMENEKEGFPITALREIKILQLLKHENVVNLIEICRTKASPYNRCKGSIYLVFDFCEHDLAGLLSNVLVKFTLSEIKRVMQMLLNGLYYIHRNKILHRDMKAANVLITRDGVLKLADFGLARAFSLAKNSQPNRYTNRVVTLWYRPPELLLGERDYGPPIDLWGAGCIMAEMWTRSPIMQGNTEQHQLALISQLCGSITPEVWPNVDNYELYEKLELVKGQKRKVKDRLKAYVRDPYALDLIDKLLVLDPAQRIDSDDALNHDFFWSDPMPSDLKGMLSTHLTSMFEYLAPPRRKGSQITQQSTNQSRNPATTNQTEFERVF
T2 sequence (O60563 1-272 partner limits assumed, species assumed): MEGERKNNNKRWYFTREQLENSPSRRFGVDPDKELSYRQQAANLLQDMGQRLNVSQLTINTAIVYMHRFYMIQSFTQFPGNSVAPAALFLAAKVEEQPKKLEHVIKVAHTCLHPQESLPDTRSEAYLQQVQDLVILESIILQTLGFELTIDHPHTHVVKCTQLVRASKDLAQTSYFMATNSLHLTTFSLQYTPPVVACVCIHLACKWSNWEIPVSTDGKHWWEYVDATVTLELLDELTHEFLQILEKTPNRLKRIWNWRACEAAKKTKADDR

Cdk10/CycQ [2] = target: T1, Cdk10/CycQ; assay: Radiometric kinase assay, inhibition of Cdk10/CycQ (c-MYC substrate); format: biochemical; settings: for Times more potent towards Cdk9 than Cdk10: ratio of IC50 values Cdk10 vs Cdk9; for Cross reactivity with Cdk10 (effect of inhibitor on Cdk10): at conditions that result in full inhibition of their primary target, supplementary figure S3
Experimental: Figure 3. […] (a) Chemical structures of the inhibitors tested against Cdk10/CycQ.
Kinase assays with recombinant proteins were performed in kinase assay buffer (50 mM Hepes pH7.6, 34 mM KCl, 7 mM MgCl2, 5 mM β-Glycerophosphate, 2.5 mM DTE). If not indicated otherwise, reactions contained 0.2 µM kinase, were started by the addition of ATP to 1 mM final concentration and incubated at 30°C in a shaking incubator.
For quantitative analysis, radioactive kinase assays were performed. Reactions were done in a total volume of 15 µl per sample. If not indicated otherwise, reactions contained 0.2 µM kinase, were started by addition of ATP to 1 mM containing 0.34 µCi γ[^32P] (Perkin Elmer) and incubated at 30°C in a shaking incubator. Reactions were stopped by adding EDTA to a final concentration of 50 mM. Samples were spotted onto Amersham Protran nitrocellulose membrane (GE Healthcare) filter sheets. Filters were washed three times for 5 min with PBS to remove free, non-reacted ATP. Samples were transferred to 4 ml liquid scintillation vials and immersed in 2 ml liquid scintillator (UltimaGold). Radioactivity was counted in a Beckman Liquid Scintillation Counter (Beckman-Coulter) for 1 min.
All compounds were solved at a stock concentration of 10 mM in DMSO and further pre-diluted in DMSO for dose–response measurement. For IC50 determination radioactive kinase assays were run as described above in presence of increasing concentration of inhibitor. For analysis, the data were normalized to the DMSO solvent control and the activity plotted against the inhibitor concentration. IC50 values were determined from duplicate measurements by sigmoidal curve fitting with a variable slope using GraphPadPrism, v.

Cdk10 [3] = tested on: Cdk10; set-up: method as in PMID 29251720; settings: MOLT4 lysates; cited from earlier work
Cdk10 [4] = tested on: Cdk10; set-up: method as in PMID 29251720; settings: cited from earlier work

For Cc1cc(O)c(-c2ccc([C@@H](C)CN(C)C)cc2)c2c1[nH]c(=O)c1sccc12 [OTS964], the IC50 (Cdk10/CycQ [1]) was 5370 nM and the IC50 (Cdk9) was 138000 nM.

For COCC(C)NC1CCC(Nc2cc(-c3cccc(NCC4(C#N)CCOCC4)n3)c(Cl)cn2)CC1 (centres unmarked) [NVP-2], the “Times more potent towards Cdk9 than Cdk10” value (Cdk10/CycQ [2]) is listed as “at least 5 times”, the IC50 (Cdk10/CycQ [1]) is listed as 1040 nM and the “Binding to Cdk10” value (Cdk10 [3]) is listed as “identified binding to Cdk10”. For the same compound, the IC50 (Cdk9) was 58 nM.

For CN(C)C/C=C/C(=O)Nc1ccc(C(=O)N2CCC[C@@H](Nc3ncc(Cl)c(-c4c[nH]c5ccccc45)n3)C2)cc1 [THZ-531], the “Cross reactivity with Cdk10 (effect of inhibitor on Cdk10)” value (Cdk10/CycQ [2]) was “did not observe any considerable effect”.

With CN(C)C/C=C/C(=O)Nc1ccc(C(=O)Nc2cccc(Nc3ncc(Cl)c(-c4c[nH]c5ccccc45)n3)c2)cc1 [THZ-1] the “Cross reactivity with Cdk10 (effect of inhibitor on Cdk10)” value (Cdk10/CycQ [2]) was “did not observe any considerable effect”.

In the case of CN1CC[C@H](c2c(O)cc(O)c3c(=O)cc(-c4ccccc4Cl)oc23)[C@H](O)C1 [flavopiridol], the “Times more potent towards Cdk9 than Cdk10” value (Cdk10/CycQ [2]) is reported as “at least 5 times”.

For CC(C)(C)c1cnc(CSc2cnc(NC(=O)C3CCNCC3)s2)o1 [SNS-032], the “Times more potent towards Cdk9 than Cdk10” value (Cdk10/CycQ [2]) is listed as “at least 5 times” and the “Binding to Cdk10” value (Cdk10 [3]) is listed as “identified binding to Cdk10”.

For CCc1cnn2c(NCc3ccc[n+]([O-])c3)cc(N3CCCC[C@H]3CCO)nc12 [dinaciclib], the “Times more potent towards Cdk9 than Cdk10” value (Cdk10/CycQ [2]) was “at least 5 times” and the IC50 (Cdk10/CycQ [1]) was 298 nM.

In the case of CCN1CCN(Cc2ccc(Nc3ncc(F)c(-c4cc(F)c5nc(C)n(C(C)C)c5c4)n3)nc2)CC1 [abemaciclib], the “Cross reactivity with Cdk10 (effect of inhibitor on Cdk10)” value (Cdk10/CycQ [2]) is reported as “did not observe any considerable effect”.

In the case of CC(=O)c1c(C)c2cnc(Nc3ccc(N4CCNCC4)cn3)nc2n(C2CCCC2)c1=O [palbociclib], the “Cross reactivity with Cdk10 (effect of inhibitor on Cdk10)” value (Cdk10/CycQ [2]) is reported as “did not observe any considerable effect”.

For C=CC(=O)Nc1ccc(C(=O)Nc2[nH]nc3c2CN(C(=O)N[C@H](CN(C)C)c2ccccc2)C3(C)C)cc1 [YKL-5-124], the “Cross reactivity with Cdk10 (effect of inhibitor on Cdk10)” value (Cdk10/CycQ [2]) was “did not observe any considerable effect”.

In the case of CC(C)(C)c1cnc(CSc2cnc(NC(=O)C3CCN(CC(=O)NCCOCCOCCOCCNc4cccc5c4C(=O)N(C4CCC(=O)NC4=O)C5=O)CC3)s2)o1 (centres unmarked) [THAL-SNS-032], the “Degradation of Cdk10” value (Cdk10 [4]) is given as “degrades Cdk10 only after a longer incubation period”.
